# In ChEMBL document CHEMBL1130710, “Design and synthesis of a novel class of nucleotide analogs with anti-HCMV activity” (Bioorg Med Chem Lett, 1998):
# “And” between values parts separate entries of the source, which are not always exact repeats. Equal values may be shown once.
# What was measured:
# [1] = system: F2002 cell line; experiment: (§1) Anti-HCMV activity against F2002 cell line; type: functional; settings: Homo sapiens, read-out: CD50 (the source's name)
# [2] = system: F2002 cell line; experiment: as §1; type: functional, cell-based, Homo sapiens
# [3] = system: F2002 cell line; experiment: Compound was tested for Anti-HCMV activity against F2002 cell line(exp 1); type: functional, cell-based; settings: Homo sapiens
# [4] = system: F2002 cell line; experiment: Compound was tested for Anti-HCMV activity against F2002 cell line(exp 2); type: functional, cell-based; settings: Homo sapiens
# [5] = Homo sapiens, F2002, read-out: IC50
compound,measurement,setting,value
Cc1cn(CC2COC(P(=O)(O)O)O2)c(=O)[nH]c1=O (stereo unspecified),CC50,[1],> 100 µg/mL
same,IC50,[2]; [5],> 100 µg/mL
N.Nc1nc(O)c2ncn(C[C@H]3CO[C@H](P(=O)(O)O)O3)c2n1,CC50,[1],> 30 µg/mL
same,IC50,[2]; [5],> 30 µg/mL
Nc1ncnc2c1ncn2CC1COC(P(=O)(O)O)O1 (stereo unspecified),CC50,[1],> 100 µg/mL
same,IC50,[2]; [5],> 100 µg/mL
N.Nc1nc(O)c2ncn(C[C@@H]3CO[C@H](P(=O)(O)O)O3)c2n1,IC50,[2]; f2002,45 µg/mL and > 100 µg/mL
N.Nc1nc(O)c2ncn(C[C@@H]3CO[C@@H](P(=O)(O)O)O3)c2n1,CC50,[1],> 100 µg/mL
same,IC50,[2]; [5],> 100 µg/mL
N.O=c1ccn(CC2COC(P(=O)(O)O)O2)c(=O)[nH]1 (stereo unspecified),CC50,[1],> 100 µg/mL
same,IC50,[2]; [5],> 100 µg/mL
N.Nc1nc(O)c2ncn(C[C@H]3CO[C@@H](P(=O)(O)O)O3)c2n1,CC50,[1],> 100 µg/mL
same,IC50,[2]; [5],> 100 µg/mL
Nc1ccn(CC2COC(P(=O)(O)O)O2)c(=O)n1 (stereo unspecified),CC50,[1],> 100 µg/mL
same,IC50,[2]; [5],> 100 µg/mL
Nc1nc(O)c2ncn(CC3COC(P(=O)(O)O)O3)c2n1 (stereo in doubt; 7a),IC50,[2]; f2002,20 µg/mL
Nc1nc(O)c2ncn(CC3COC(P(=O)(O)O)O3)c2n1 (stereo in doubt; 7b),CC50,[1],> 100 µg/mL
same,IC50,[2]; f2002,> 100 µg/mL
Nc1nc2c(ncn2COC(CO)CO)c(=O)[nH]1 [GANCICLOVIR],CC50,[1],> 100 µg/mL
same,IC50,[3],0.1 µg/mL
same,IC50,[4],0.2 µg/mL
